Measurements reported in ChEMBL document CHEMBL1136427, “Unique spirocyclopiperazinium salt I: synthesis and structure-activity relationship of spirocyclopiperazinium salts as analgesics” (2003).

What was measured:
Assay type in all cases: functional
[1] = tested on: Mus sp.; experiment: Sedative activity was evaluated in mice after s.c. administration of 20 mg/kg.; conditions: for inhibition in vivo at 20 mg/kg: Mus sp., sc; for Inhibition: 20 mg/kg
[2] = tested on: Mus sp.; experiment: Analgesic activity was evaluated in mice after s.c. administration of 20 mg/kg.; conditions: for inhibition in vivo at 20 mg/kg: Mus sp., sc; for Inhibition: 20 mg/kg
[3] = tested on: Mus sp.; experiment: Sedative activity was evaluated in mice after s.c. administration of 10 mg/kg.; conditions: sc
[4] = tested on: Mus sp.; experiment: Analgesic activity was evaluated in mice after s.c. administration of 10 mg/kg.; conditions: sc

Row | SMILES | inhibition in vivo at 20 mg/kg [1] | inhibition in vivo at 20 mg/kg [2] | inhibition in vivo at 10 mg/kg [3] | inhibition in vivo at 10 mg/kg [4] | Inhibition [1] | Inhibition [2]
1 | c1ccc(OCCCCN2CC[N+]3(CCCC3)CC2)cc1 | 4% | 9% | – | – | – | –
2 | C=CCN1CC[N+]2(CCCC2)CC1 | 0% | 100% | 0% | 45% | – | –
3 | O=C1CCC(=O)N1CCCN1CC[N+]2(CCCC2)CC1 | 10% | 20% | – | – | – | –
4 | O=C(CCN1CC[N+]2(CCCC2)CC1)c1ccc(O)cc1 | 85% | 100% | – | 77% | – | –
5 | O=C(CCN1CC[N+]2(CCCC2)CC1)c1ccoc1 | 0% | 15% | – | – | – | –
6 | O=C(CCN1CC[N+]2(CCCC2)CC1)c1cccc(O)c1 | 13% | 14% | – | – | – | –
7 | O=C(CCN1CC[N+]2(CCCC2)CC1)c1cccc([N+](=O)[O-])c1 | 0% | 59% | – | – | – | –
8 | O=[N+]([O-])c1cccc(/C=C/CN2CC[N+]3(CCCC3)CC2)c1 | 12% | 32% | – | – | – | –
9 | C=C(C)CN1CC[N+]2(CCCC2)CC1 | 0% | 0% | – | – | – | –
10 | O=C(CCN1CC[N+]2(CCCC2)CC1)c1ccccc1 | 11% | 25% | – | – | – | –
11 | Clc1ccc(/C=C/CN2CC[N+]3(CCCC3)CC2)cc1 | 12% | 19% | – | – | – | –
12 | Cc1ccc(C(=O)CCN2CC[N+]3(CCCC3)CC2)cc1 | 14% | 25% | – | – | – | –
13 | OCCN1CC[N+]2(CCCC2)CC1 | 0% | 10% | – | – | – | –
14 | O=[N+]([O-])c1ccc(/C=C/CN2CC[N+]3(CCCC3)CC2)cc1 | 10% | 24% | – | – | – | –
15 | O=C(CCN1CC[N+]2(CCCC2)CC1)c1ccsc1 | 3% | 12% | – | – | – | –
16 | CCN1CC[N+]2(CCCC2)CC1 | 0% | 0% | – | – | – | –
17 | Clc1cccc(/C=C/CN2CC[N+]3(CCCC3)CC2)c1 | 51% | 42% | – | – | – | –
18 | Clc1ccccc1/C=C/CN1CC[N+]2(CCCC2)CC1 | 59% | 27% | – | – | – | –
19 | C1CC[N+]2(C1)CCN(CCC1OCCO1)CC2 | 25% | 36% | – | – | – | –
20 | C(=C\c1ccccc1)/CN1CC[N+]2(CCCC2)CC1 | 33% | 0% | – | – | – | –
21 | O=C(CCN1CC[N+]2(CCCC2)CC1)c1ccc([N+](=O)[O-])cc1 | 35% | 12% | – | – | – | –
22 | OC(CCl)CN1CC[N+]2(CCCC2)CC1.[Br-] (stereo in doubt; 3) | – | – | – | – | 57% | 64%
23 | OC(CCl)CN1CC[N+]2(CCCC2)CC1.[Br-] (stereo in doubt; 7a) | – | – | – | – | 0% | 0%
